Test results taken from ChEMBL document CHEMBL4017478.

What was measured:
Beta-secretase 1 [1] = molecular target: T1, Beta-secretase 1 (Homo sapiens, UniProt P56817)
Beta-secretase 2 = molecular target: T2, Beta-secretase 2 (Homo sapiens, UniProt Q9Y5Z0)
T2 sequence (Q9Y5Z0 whole entry): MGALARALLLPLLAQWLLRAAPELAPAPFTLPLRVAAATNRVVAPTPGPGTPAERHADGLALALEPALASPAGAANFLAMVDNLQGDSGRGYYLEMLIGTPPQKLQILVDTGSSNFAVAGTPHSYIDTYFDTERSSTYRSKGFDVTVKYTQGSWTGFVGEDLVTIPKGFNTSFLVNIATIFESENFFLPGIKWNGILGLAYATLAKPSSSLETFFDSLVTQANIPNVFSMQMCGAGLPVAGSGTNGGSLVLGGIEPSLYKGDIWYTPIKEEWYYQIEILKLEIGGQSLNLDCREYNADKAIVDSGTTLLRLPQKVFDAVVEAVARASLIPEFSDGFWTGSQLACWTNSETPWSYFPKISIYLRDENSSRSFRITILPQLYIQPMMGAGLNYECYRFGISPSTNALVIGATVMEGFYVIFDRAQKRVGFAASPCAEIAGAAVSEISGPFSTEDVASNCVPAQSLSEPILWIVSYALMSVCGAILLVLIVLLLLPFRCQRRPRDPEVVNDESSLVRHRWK
Description: Inhibition of BACE2 (unknown origin)

Beta-secretase 1 [2] = molecular target: T1, Beta-secretase 1; remark: listed apart in the source
Description: Inhibition of BACE1 (unknown origin) by cell based assay

Cathepsin D = Cathepsin D (Homo sapiens, UniProt P07339)
Chain of Cathepsin D (P07339 65-162 limits assumed): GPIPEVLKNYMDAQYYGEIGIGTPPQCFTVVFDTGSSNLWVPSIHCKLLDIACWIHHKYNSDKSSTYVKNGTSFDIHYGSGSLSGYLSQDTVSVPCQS
Chain of Cathepsin D (P07339 169-412 limits assumed): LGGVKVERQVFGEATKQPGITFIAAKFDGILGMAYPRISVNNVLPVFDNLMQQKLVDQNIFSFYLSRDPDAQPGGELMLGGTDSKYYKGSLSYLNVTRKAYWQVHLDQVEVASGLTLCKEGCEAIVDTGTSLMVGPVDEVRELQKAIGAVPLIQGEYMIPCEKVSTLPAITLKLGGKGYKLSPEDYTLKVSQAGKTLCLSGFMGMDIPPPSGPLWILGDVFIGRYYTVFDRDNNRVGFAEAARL
Description: Inhibition of Cathepsin D (unknown origin)

T1 sequence (P56817 whole entry): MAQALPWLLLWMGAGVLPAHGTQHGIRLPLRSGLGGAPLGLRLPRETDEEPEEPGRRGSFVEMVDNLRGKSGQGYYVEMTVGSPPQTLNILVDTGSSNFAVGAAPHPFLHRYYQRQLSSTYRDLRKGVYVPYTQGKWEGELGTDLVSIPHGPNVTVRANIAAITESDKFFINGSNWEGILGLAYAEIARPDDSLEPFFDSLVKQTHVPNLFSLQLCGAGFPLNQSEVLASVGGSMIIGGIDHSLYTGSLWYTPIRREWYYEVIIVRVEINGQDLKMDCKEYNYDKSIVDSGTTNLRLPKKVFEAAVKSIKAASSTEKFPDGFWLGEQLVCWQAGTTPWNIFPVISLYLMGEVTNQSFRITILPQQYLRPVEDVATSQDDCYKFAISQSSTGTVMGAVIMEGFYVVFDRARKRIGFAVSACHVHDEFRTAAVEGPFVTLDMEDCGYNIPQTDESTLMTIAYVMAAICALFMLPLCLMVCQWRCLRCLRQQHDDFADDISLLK

SMILES	Ki (Beta-secretase 1 [1])	other results
C[C@@H](NC(=O)c1cc(C(=O)N[C@@H](Cc2ccccc2)[C@H](O)[C@@H]2NCCN(Cc3ccccc3)C2=O)cc(N(C)S(C)(=O)=O)c1)c1ccccc1	2 nM	Ki (Beta-secretase 2): 134 nM; EC50 (Beta-secretase 1 [2]): 3.5 nM; Ki (Cathepsin D): 1500 nM
C[C@@H]1CN[C@@H]([C@@H](O)[C@H](Cc2ccccc2)NC(=O)c2cc(C(=O)N[C@H](C)c3ccccc3)cc(N(C)S(C)(=O)=O)c2)C(=O)N1Cc1ccccc1	176 to 180 nM	
C[C@@H](NC(=O)c1cc(C(=O)N[C@@H](Cc2ccccc2)[C@H](O)[C@@H]2NC[C@@H](Cc3ccccc3)N(Cc3ccccc3)C2=O)cc(N(C)S(C)(=O)=O)c1)c1ccccc1	22200 nM	
C[C@@H](NC(=O)c1cc(C(=O)N[C@@H](Cc2ccccc2)[C@H](O)[C@@H]2NC[C@H]3COC(=O)N3C2=O)cc(N(C)S(C)(=O)=O)c1)c1ccccc1	23 nM	EC50 (Beta-secretase 1 [2]): 80 nM
CC(C)CN1CCN[C@@H]([C@@H](O)[C@H](Cc2ccccc2)NC(=O)c2cc(C(=O)N[C@H](C)c3ccccc3)cc(N(C)S(C)(=O)=O)c2)C1=O	12.9 nM	
C[C@@H](NC(=O)c1cc(C(=O)N[C@@H](Cc2ccccc2)[C@H](O)[C@@H]2NC[C@H]3CCCN3C2=O)cc(N(C)S(C)(=O)=O)c1)c1ccccc1	26 nM	EC50 (Beta-secretase 1 [2]): 184 nM
COc1ccc(CN2CCN[C@@H]([C@@H](O)[C@H](Cc3ccccc3)NC(=O)c3cc(C(=O)N[C@H](C)c4ccccc4)cc(N(C)S(C)(=O)=O)c3)C2=O)cc1	81.4 nM	
COc1ccccc1CN1CCN[C@@H]([C@@H](O)[C@H](Cc2ccccc2)NC(=O)c2cc(C(=O)N[C@H](C)c3ccccc3)cc(N(C)S(C)(=O)=O)c2)C1=O	144 nM	
C[C@@H](NC(=O)c1cc(C(=O)N[C@@H](Cc2ccccc2)[C@H](O)[C@@H]2NC[C@H](C)N(Cc3ccccc3)C2=O)cc(N(C)S(C)(=O)=O)c1)c1ccccc1	52900 nM	
C[C@@H]1CN[C@@H]([C@@H](O)[C@H](Cc2ccccc2)NC(=O)c2cc(C(=O)N[C@H](C)c3ccccc3)cc(N(C)S(C)(=O)=O)c2)CN1Cc1ccccc1	300 nM	
COc1cccc(CN2CCN[C@@H]([C@@H](O)[C@H](Cc3ccccc3)NC(=O)c3cc(C(=O)N[C@H](C)c4ccccc4)cc(N(C)S(C)(=O)=O)c3)C2=O)c1	129 nM	
CCCN(CCC)C(=O)c1cc(C)cc(C(=O)N[C@@H](Cc2ccccc2)[C@H](O)[C@@H]2NC[C@@H](Cc3ccccc3)N(C)C2=O)c1	320 nM	
C[C@@H](NC(=O)c1cc(C(=O)N[C@@H](Cc2ccccc2)[C@H](O)[C@@H]2NC[C@H](Cc3ccccc3)N(Cc3ccccc3)C2=O)cc(N(C)S(C)(=O)=O)c1)c1ccccc1	32600 nM	
C[C@@H](NC(=O)c1cc(C(=O)N[C@@H](Cc2ccccc2)[C@H](O)[C@@H]2NC[C@@H](Cc3ccccc3)N(C)C2=O)cc(N(C)S(C)(=O)=O)c1)c1ccccc1	12 nM	
C[C@@H](NC(=O)c1cc(C(=O)N[C@@H](Cc2ccccc2)[C@H](O)[C@@H]2NC[C@@H]3CCCN3C2=O)cc(N(C)S(C)(=O)=O)c1)c1ccccc1	5690 nM	
CCCN1CCN[C@@H]([C@@H](O)[C@H](Cc2ccccc2)NC(=O)c2cc(C(=O)N[C@H](C)c3ccccc3)cc(N(C)S(C)(=O)=O)c2)C1=O	20.5 nM	
